The source of these data is patent US8399462B2, “JNK modulators” (Roche Palo Alto LLC, priority 2006, dated 2013).

In the case of `C[C@@H](CO)COc1cccc2c1cnn2-c1ccnc(N[C@H]2CC[C@H](C(C)(C)O)CC2)n1` (stereo in doubt) [Compound 185, 3-(1-{2-[4-(2-hydroxy-prop-2-yl)-cyclohexyl-amino]-pyrimidin-4-yl}-1H-indazol-4-yloxy)-2-methylpropan-1-ol], the melting point lay in the range of 211 to 212.5 °C.

Molecule `OCc1cccc2c1ccn2-c1ccnc(N[C@H]2CC[C@H](O)CC2)n1` [Example 10, trans-4-[4-(4-Hydroxymethylindol-1-yl)-pyrimidin-2-ylamino]-cyclohexanol] yielded a melting point of 212 to 213.3 °C.

Molecule `CC1(C)OC[C@@H](COc2cccc3c2cnn3-c2ccnc(N[C@H]3CC[C@H](O)CC3)n2)O1` (stereo in doubt) [Compound 98, 4-{4-[4-(2,2-dimethyl-[1,3]dioxolan-4-ylmeth-oxy)-indazol-1-yl]-pyrimidin-2-ylamino}-cyclohexanol] returned a melting point of 189.2 to 190 °C.

`CC(=O)N1CCN(c2cccc3c2ccn3-c2ccnc(N[C@H]3CC[C@H](NS(C)(=O)=O)CC3)n2)CC1` [Compound 267, N-(4-{4-[4-(4-acetyl-piperazin-1-yl)-indol-1-yl]-pyrimidin-2-yl-amino}-cyclohexyl)-methanesulfonamide] gave a melting point of 268 to 269 °C.

On to `CS(=O)(=O)CCCOc1cccc2c1ccn2-c1ccnc(N[C@H]2CC[C@H](NC(=O)CCN)CC2)n1.Cl`, for which the melting point is 263 to 264 °C.

`CC(C)(O)c1cccc2c1cnn2-c1ccnc(N[C@H]2CC[C@H](N3CCCS3(=O)=O)CC2)n1` [Compound 207, 2-(1-{2-[4-(1,1-dioxo-isothiazolidin-2yl)-cyclohexylamino]-pyrimidin-4-yl}-1H-indazol-4-yl)-propan-2-ol] gave a melting point of 204 to 205 °C.

In turn, `CC(=O)N[C@H]1CC[C@H](Nc2nccc(-n3ccc4c(C(C)C#N)cccc43)n2)CC1` (stereo partly drawn) [Compound 175, N-(4-{4-[4-(1-cyano-ethyl)-indol-1-yl]-pyrimidin-2-ylamino}-cyclohexyl)-acetamide] registered a melting point of 244 to 245 °C.

`OCCOc1cccc2c1cnn2-c1ccnc(N[C@H]2CC[C@H](O)CC2)n1` [Compound 90, 4-{4-[4-(2-hydroxy-ethoxy)-indazol-1-yl]-pyrimidin-2-ylamino}-cyclohexanol]: the melting point lay in the range of 208.2 to 210.2 °C.

In the case of `CS(=O)(=O)CCCOc1cccc2c(-c3ccnc(N[C@H]4CC[C@H](C(=O)N5CCC(O)CC5)CC4)n3)noc12` [Compound 307, (4-hydroxy-piperidin-1-yl)-(4-{4-[7-(3-methane-sulfonyl-propoxy)-benzo[d]isoxazol-3-yl]-pyrimidin-2-ylamino}-cyclohexyl)-methanone], the melting point was in the range of 186 to 187 °C.

For the molecule `O=C1c2ccccc2C(=O)N1Cc1cccc2c1ccn2-c1ccnc(N[C@H]2CC[C@H](O)CC2)n1` [Compound 106, 2-{1-[2-(4-hydroxy-cyclohexylamino)-pyrimidin-4-yl]-1H-indol-4-ylmethyl}-isoindole-1,3-dione], the melting point was in the range of 251.7 to 253 °C.

Molecule `CS(=O)(=O)CCCOc1cccc2c(-c3ccnc(N[C@H]4CC[C@H](C(=O)N5CC[C@@H](O)C5)CC4)n3)noc12` [Compound 309, (3-hydroxy-pyrrolidin-1-yl)-(4-{4-[7-(3-methane-sulfonyl-propoxy)-benzo[d]isoxazol-3-yl]-pyrimidin-2-ylamino}-cyclohexyl)-methanone] came in with a melting point of 224 to 225 °C.

As for `N#CCc1cccc2c1ccn2-c1ccnc(N[C@H]2CC[C@H](O)CC2)n1` [Compound 101, {1-[2-(4-hydroxy-cyclo-hexylamino)-pyrimidin-4-yl]-1H-indol-4-yl}-acetonitrile], the melting point is 207 to 209 °C.

As to `COc1cccc2c1c(C(N)=O)cn2-c1ccnc(N[C@H]2CC[C@H](N(C)S(C)(=O)=O)CC2)n1` [Compound 283, 1-{2-[4-(methane-sulfonyl-methylamino)-cyclohexylamino]-pyrimidin-4-yl}-4-methoxy-1H-indole-3-carboxylic acid amide], the melting point fell in the range of 285 to 287 °C.

In the case of `CN([C@H]1CC[C@H](Nc2nccc(-n3ccc4c(CC#N)cccc43)n2)CC1)S(C)(=O)=O` [Compound 163, N-{4-[4-(4-cyano-methyl-indol-1-yl)-pyrimidin-2-ylamino]-cyclohexyl}-N-methyl-methanesulfonamide], the melting point is 187.8 to 189 °C.

Consider `Cl.N[C@H]1CC[C@H](Nc2nccc(-n3ccc4c(F)cccc43)n2)CC1`, for which the melting point was more than 300 °C.

On to `CC(C)COc1cccc2c1cnn2-c1ccnc(N[C@H]2CC[C@H](O)CC2)n1` [Compound 169, 4-[4-(4-isobutoxy-indazol-1-yl)-pyrimidin-2-ylamino]-cyclohexanol], for which the melting point lay within 189.3 to 190.3 °C.

In turn, `CC(=O)N[C@H]1CC[C@H](Nc2nccc(-n3ccc4c(C(C)(C)O)cccc43)n2)CC1` [Compound 109, N-(4-{4-[4-(1-hydroxy-1-methylethyl)-indol-1-yl]-pyrimidin-2-yl-amino}-cyclohexyl)-acetamide] showed a melting point of 172 to 173.6 °C.

Take `CS(=O)(=O)N[C@H]1CC[C@H](Nc2nccc(-n3ccc4c(OCCCC#N)cccc43)n2)CC1` [Compound 202, N-(4-{4-[4-(3-cyano-propoxy)-indol-1-yl]-pyrimidin-2-ylamino}-cyclohexyl)-methane-sulfonamide]: the melting point was in the range of 247 to 248 °C.

`N#CCCCOc1cccc2c1ccn2-c1ccnc(N[C@H]2CC[C@H](C(=O)N3CCC(O)CC3)CC2)n1` [Compound 206, 4-(1-{2-[4-(4-hydroxy-piperidin-1-carbonyl)-cyclohexylamino]-pyrimidin-4-yl}-1H-indol-4-yloxy)-butyro-nitrile]: the melting point lay within 134 to 136 °C.

Regarding `CS(=O)(=O)C[C@H](O)COc1cccc2c1cnn2-c1ccnc(N[C@H]2CC[C@H](C(=O)N3CCC(O)CC3)CC2)n1` (stereo in doubt) [Compound 234, (4-{4-[4-(2-hydroxy-3-methanesulfonyl-propoxy)-indazol-1-yl]-pyrimidin-2-ylamino}-cyclohexyl)-(4-hydroxy-piperidin-1-yl)-methanone], the melting point lay within 232 to 233 °C.

For `CC(C)COc1cccc2c1cnn2-c1ccnc(N[C@H]2CC[C@H](N(C)S(C)(=O)=O)CC2)n1` [Compound 191, N-{4-[4-(4-isobutoxy-indazol-1-yl)-pyrimidin-2-ylamino]-cyclohexyl}-N-methyl-methanesulfonamide], the melting point lay in the range of 227 to 228 °C.

Molecule `CS(=O)(=O)CCCOc1cccc2c1ccn2-c1ccnc(N[C@H]2CC[C@H](C(=O)N3CCC(C#N)CC3)CC2)n1` [Compound 265, 1-(4-{4-[4-(3-methane-sulfonyl-propoxy)-indol-1-yl]-pyrimidin-2-ylamino}-cyclohexane-carbonyl)-piperidine-4-carbonitrile] returned a melting point of 150.5 to 156.5 °C.

Molecule `CNC1CCN(C(=O)[C@H]2CC[C@H](Nc3nccc(-n4ccc5c(OCCCS(C)(=O)=O)cccc54)n3)CC2)CC1` [Compound 293, (4-{4-[4-(3-methane-sulfonyl-propoxy)-indol-1-yl]-pyrimidin-2-ylamino}-cyclohexyl)-(4-methylamino-piperidin-1-yl)-methanone] displayed a melting point of 187.5 to 189.1 °C.

`CC1(O)CCC(Nc2nccc(-n3ncc4ccccc43)n2)CC1` (stereo not drawn) [Example 13, 4-(4-Indazol-1-ylpyrimidin-2-ylamino)-1-methylcyclohexanol] registered a melting point of 168.1 to 170.1 °C.

As for `CN([C@H]1CC[C@H](Nc2nccc(-n3ccc4c(C(C)(C)O)cccc43)n2)CC1)S(C)(=O)=O` [Compound 161, N-(4-{4-[4-(1-hydroxy-1-methyl-ethyl)-indol-1-yl]-pyrimidin-2-yl-amino}-cyclohexyl)-N-methyl-methane-sulfonamide], the melting point is 149 to 150 °C.

`COc1cccc2c1cnn2-c1ccnc(N[C@H]2CC[C@H](C(=O)N3CCCC3)CC2)n1` [Compound 125, {4-[4-(4-methoxy-indazol-1-yl)-pyrimidin-2-ylamino]-cyclohexyl}-pyrrolidin-1-ylmethanone] had a melting point of 246.5 to 247 °C.

Consider `CC(C)(O)c1cccc2c1ccn2-c1ccnc(N[C@H]2CC[C@H](NS(=O)(=O)N3CCOCC3)CC2)n1` [Compound 259, Morpholine-4-sulfonic acid (4-{4-[4-(2-hydroxyprop-2-yl)-indol-1-yl]-pyrimidin-2-ylamino}-cyclohexyl)-amide], for which the melting point is more than 300 °C.

In the case of `N#CCCCOc1cccc2c1cnn2-c1ccnc(N[C@H]2CC[C@H](C(=O)N3CCC(O)CC3)CC2)n1` [Compound 226, 4-(1-{2-[4-(4-hydroxy-piperidine-1-carbonyl)-cyclohexylamino]-pyrimidin-4-yl}-1H-indazol-4-yloxy)-butyro-nitrile], the melting point lay within 201 to 202 °C.

For `CS(=O)(=O)N[C@H]1CC[C@H](Nc2nccc(-n3ccc4c(OCC(O)CC(F)(F)F)cccc43)n2)CC1` (stereo partly drawn) [Compound 314, N-(4-{4-[4-(4,4,4-trifluoro-2-hydroxy-butoxy)-indol-1-yl]-pyrimidin-2-ylamino}-cyclohexyl)-methanesulfonamide], the melting point lay in the range of 220.7 to 221.5 °C.

Consider `O=C([C@H]1CC[C@H](Nc2nccc(-n3ncc4c(OCCO)cccc43)n2)CC1)N1CCCC1` [Compound 151, (4-{4-[4-(2-hydroxy-ethoxy)-indazol-1-yl]-pyrimidin-2-ylamino}-cyclohexyl)-pyrrolidin-1-ylmethanone], for which the melting point is 164 to 166 °C.

With `CN(C)C1CCN(C(=O)[C@H]2CC[C@H](Nc3nccc(-n4ccc5c(OCCCS(N)(=O)=O)cccc54)n3)CC2)CC1` [Compound 300, 3-(1-{2-[4-(4-dimethyl-amino-piperidine-1-carbonyl)-cyclohexyl-amino]-pyrimidin-4-yl}-1H-indol-4-yloxy)-propane-1-sulfonic acid amide], the melting point was 135.7 to 142.7 °C.

`Cl.NC[C@H]1CC[C@H](Nc2nccc(-n3ccc4c(OCCCC(F)(F)F)cccc43)n2)CC1`: the melting point was 274 to 275 °C.

`CS(=O)(=O)CCCOc1cccc2c1ccn2-c1ccnc(N[C@H]2CC[C@H](CCl)CC2)n1` [Compound 285, (4-chloromethyl-cyclo-hexyl)-{4-[4-(3-methane-sulfonyl-propoxy)-indol-1-yl]-pyrimidin-2-yl}-amine] yielded a melting point of 152 to 155 °C.

For orientation: melting point means the temperature of the solid-liquid transition.
